Assay results from US5512550A, “Method for inhibiting angiogenesis with modified platelet factor-4 and cleaved platelet factor-4” (Eli Lilly and Company, priority 1995, dated 1996).
Positions of bridges follow the written chain, without caps; N, C: chain ends. Chains are numbered I, II in the order given. No end group written: not given here.

How the values were obtained:
[1] = system: primary retinal capillary endothelial cells or bovine heart endothelial cells; test: Endothelial cell proliferation inhibition assay; format: cell-based; settings: for IC50, inhibition of endothelial cell proliferation: endothelial cells with 20 ng/ml fibroblast growth factor, grown four days, cell count, average of 4 wells (FIG. 1); for IC50: same experiment, IC50 restated in nM; for potency of endothelial cell proliferation inhibition compared with PF-4: under identical conditions as PF-4
Description: Primary retinal capillary endothelial cell cultures were prepared in substantial accordance with the procedure described in Buzney et al., Retinal Vascular Endothelial Cells and Pericytes: Differential Growth Characteristics in vitro, Invest. Opthalmol. Visual Sci. 24: 470-483 (1983) and separated from contaminating cells as described in Voyta et al., Identification and Isolation of Endothelial Cells Based on their Increased Uptake of Acetylated-low density Lipoprotein, J. Cell Biol, 99: 2034-2040 (1981).
Alternatively, bovine heart endothelial cells were obtained (American Type Culture Collection; Rockville Md. 20852) for use in the assay. Irrespective of source, the endothelial cells were seeded into 24 well tissue culture plates at a cell density of 10,000 cells/well in Dulbecco's modified Eagle Medium (GIBCO; Grand Island, N.Y.) supplemented with 5% bovine serum albumin, 1% penicillin-streptomycin, 1% L-glutamine, and 20 ng/ml fibroblast growth factor. Immediately after seeding the cells, various amounts of PF-4 (Sigma Chemical Co.; St. Louis, Mo. 63178), MPF-4 , or CPF-4 (isolated as describe in the above examples) were added to individual growth wells. MPF-4 and CPF-4 were tested at final concentrations ranging from 0.001 to 1 μg/ml. For comparison, native PF-4 was tested over a range of 0.001 to 3 μg/ml, and supplemented medium alone served as the negative control. The endothelial cell cultures were allowed to grow for four days at 37° C., 5% CO2 in a humidified tissue culture incubator. The cultures were then harvested individually by trypsinization and counted using a Zm-Coulter Counter (Coulter Electronics. Inc.; Opa Locka Fla. 33054).
The results were plotted in FIG. 1, and each point on the graph represented the average of 4 data points; ie one growth well per data point.

[2] = Heparin binding (heparin affinity chromatography)
From the text: The eluted proteins are then contacted with a heparin affinity resin. The ordinarily skilled artisan will readily realize that this step is best achieved in a column chromatography mode. Heparin affinity columns are commercially available from some of the same vendors mentioned above. In this step, the molecules of interest, both MPF-4 or CPF-4, bind to the heparin column and are eluted using an increasing linear salt gradient. The preferred salt is NaCl, and the portion of the gradient that is preferably collected is the 0.1-2.0M portion. The more highly preferred portion of the gradient to collect is the 0.7-2.0M portion.
The C4-pool was further fractionated by heparin affinity chromatography on a Econo-pac™ 5 ml heparin-sepharose cartridge (Biorad, Richmond, Calif. 94804). The bound proteins were eluted by a linear gradient of 0 to 2.0M NaCl in phosphate buffer saline (PBS) at a flow rate of 2.0 ml/min. The proteins that eluted from the column were pooled into three fractions: (1) non-heparin binding (flow through), (2) low-affinity heparin binding (0 to 0.7M NACl), and (3) high-affinity heparin binding (0.7M to 2.0M NACl) fractions.

MPF-4: N-terminally processed form of human platelet factor-4, 54 C-terminal residues beginning with Ser-17, SEQ ID NO: 1 (SQVRPRHITSLEVIKAGPHCPTAQLIATLKNGRKICLDLQAPLYKKIIKKLLES)
IC50, inhibition of endothelial cell proliferation [1]: 0.03 to 0.05 µg/mL | IC50 [1]: ~7 nM | potency of endothelial cell proliferation inhibition compared with PF-4 [1]: more potent inhibitors of endothelial cell proliferation | heparin binding [2]: bind heparin

PF-4: Native platelet factor-4 (Sigma Chemical Co.), tested for comparison [reference compound]
IC50, inhibition of endothelial cell proliferation [1]: 0.8 to 1 µg/mL | IC50 [1]: ~130 nM

B1: CPF-4: Proteolytically cleaved, non-reduced PF-4: 16-residue chain (SEQ ID NO: 2) disulfide bonded to 54-residue chain (SEQ ID NO: 1) (protein)
chain 1: EAEEDGDLQCLCVKTT
chain 2: SQVRPRHITSLEVIKAGPHCPTAQLIATLKNGRKICLDLQAPLYKKIIKKLLES
modifications: disulfide I:10-II:20, I:12-II:36; not fully specified
IC50, inhibition of endothelial cell proliferation [1]: approximately 150 ng/ml | IC50 [1]: ~20 nM | potency of endothelial cell proliferation inhibition compared with PF-4 [1]: more potent inhibitors of endothelial cell proliferation | heparin binding [2]: bind heparin
